In one assay the target is T1, Human plasma kallikrein (Homo sapiens, UniProt P03952).
T1 construct: yields a heavy chain (371 amino acids) and a light chain (248 amino acids); The active site of plasma kallikrein is contained in the light chain; purchased Enzyme Research Laboratories
Briefly: Plasma Kallikrein Assay. As to conditions: purified Human plasma kallikrein 0.5 nM, substrate Acetyl-K-P-R-AFC, HEPES pH 7.4; read-out: PKal IC50. The assay is classed as biochemical. An outline of the steps:
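Purified human plasma kallikrein at 0.5 nM final with substrate Acetyl-K-P-R-AFC at […], in 50 mM HEPES pH 7.4, 150 mM NaCl, 5 mM CaCl2, 0.1% PEG 8000, at rt or 37° C after enzyme-inhibitor equilibration. IC50 from four-parameter logistic fit of fluorescence rate; Ki via Cheng-Prusoff.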

The target of the next assay is human factor XIa (Homo sapiens, UniProt P03951). Briefly: Factor XIa Assay. The assay is classed as biochemical. As to conditions: human factor XIa 0.04 nM, substrate GPR-AFC, 30 min pre-incubation, 25° C., pH 7.4; read-out: FXIa IC50.
Sequence of human factor XIa (P03951 388-625 limits assumed): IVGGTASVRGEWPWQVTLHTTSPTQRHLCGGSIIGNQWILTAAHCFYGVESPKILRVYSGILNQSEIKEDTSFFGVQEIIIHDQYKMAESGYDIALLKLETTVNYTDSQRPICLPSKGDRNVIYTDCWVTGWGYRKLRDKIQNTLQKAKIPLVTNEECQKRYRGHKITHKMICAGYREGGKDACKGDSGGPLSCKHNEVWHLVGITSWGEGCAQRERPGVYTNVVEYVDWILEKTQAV
Sequence of human factor XIa (P03951 19-387 partner limits assumed): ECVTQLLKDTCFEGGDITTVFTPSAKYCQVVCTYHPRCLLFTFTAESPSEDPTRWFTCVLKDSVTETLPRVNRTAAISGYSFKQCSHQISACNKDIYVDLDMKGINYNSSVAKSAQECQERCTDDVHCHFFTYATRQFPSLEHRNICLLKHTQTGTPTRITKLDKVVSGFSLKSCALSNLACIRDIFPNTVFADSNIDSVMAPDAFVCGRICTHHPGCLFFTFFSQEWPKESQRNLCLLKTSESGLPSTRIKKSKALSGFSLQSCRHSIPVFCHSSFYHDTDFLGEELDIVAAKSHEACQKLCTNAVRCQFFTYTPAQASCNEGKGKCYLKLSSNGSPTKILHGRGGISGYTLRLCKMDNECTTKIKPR

T1 sequence (P03952 391-638 limits assumed): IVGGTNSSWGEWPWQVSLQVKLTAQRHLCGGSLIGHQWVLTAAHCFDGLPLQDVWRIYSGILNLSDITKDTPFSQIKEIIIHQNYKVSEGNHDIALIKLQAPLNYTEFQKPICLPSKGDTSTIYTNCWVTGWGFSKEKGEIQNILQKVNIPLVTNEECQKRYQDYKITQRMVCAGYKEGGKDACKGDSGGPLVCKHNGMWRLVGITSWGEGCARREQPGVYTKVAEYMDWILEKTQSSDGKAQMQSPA
T1 sequence (P03952 20-390 partner limits assumed): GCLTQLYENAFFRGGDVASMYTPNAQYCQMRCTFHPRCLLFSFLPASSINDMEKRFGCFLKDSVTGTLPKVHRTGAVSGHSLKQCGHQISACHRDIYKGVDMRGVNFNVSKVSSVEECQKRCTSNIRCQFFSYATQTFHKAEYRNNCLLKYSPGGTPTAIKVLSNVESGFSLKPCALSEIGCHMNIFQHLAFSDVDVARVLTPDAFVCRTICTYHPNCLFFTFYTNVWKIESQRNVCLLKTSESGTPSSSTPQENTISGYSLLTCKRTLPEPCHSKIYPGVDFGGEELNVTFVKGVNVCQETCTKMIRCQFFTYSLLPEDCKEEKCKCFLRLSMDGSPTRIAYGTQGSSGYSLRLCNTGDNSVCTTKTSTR

As for `COc1c(F)cc(F)cc1-n1ncc(C(=O)N2CCC[C@@]3(C2)OC(=O)Nc2ccc(Cl)c(F)c23)c1N` [Example 101, (R)-1'-(5-Amino-1-(3,5-difluoro-2-methoxyphenyl)-1H-pyrazole-4-carbonyl)-6-chloro-5-fluorospiro[benzo[d][1,3]oxazine-4,3'-piperidin]-2(1H)-one], the results for the IC50 at Human plasma kallikrein and on human factor XIa were 30.6 nM and 1310 nM, respectively.
Regarding `Nc1c(C(=O)N2CCC[C@@]3(C2)OC(=O)Nc2ccc(Cl)c(F)c23)cnn1-c1c(Cl)cncc1Cl` [Example 102, (R)-1'-(5-Amino-1-(3,5-dichloropyridin-4-y1)-1H-pyrazole-4-carbonyl)-6-chloro-5-fluorospiro[benzo[d][1,3]oxazine-4,3'-piperidin]-2(1H)-one], the IC50 at Human plasma kallikrein stood at 3.8 nM; at human factor XIa, 12 nM.
For `Nc1c(C(=O)N2CCC[C@@]3(C2)OC(=O)Nc2ccc(Cl)c(F)c23)cnn1-c1ccnc2ccccc12` [Example 103, (R)-1'-(5-Amino-1-(quinolin-4-yl)-1H-pyrazole-4-carbonyl)-6-chloro-5-fluorospiro[benzo[d][1,3]oxazine-4,3'-piperidin]-2(1H)-one], the IC50 on Human plasma kallikrein was found to be 10.1 nM; on human factor XIa, 610 nM.
As to `Nc1c(C(=O)N2CCC[C@@]3(C2)OC(=O)Nc2ccc(Cl)c(F)c23)cnn1-c1ccnc2c(F)cccc12` [Example 104, (R)-1'-(5-Amino-1-(8-fluoroquinolin-4-y1)-1H-pyrazole-4-carbonyl)-6-chloro-5-fluorospiro[benzo[d][1,3]oxazine-4,3'-piperidin]-2(1H)-one], the IC50 was found to be 9.5 nM at Human plasma kallikrein and 562 nM on human factor XIa.
Turning to `Cc1cnccc1-n1ncc(C(=O)N2CCC[C@@]3(C2)OC(=O)Nc2ccc(Cl)c(F)c23)c1N` [Example 105, (R)-1'-(5-Amino-1-(3-methylpyridin-4-y1)-1H-pyrazole-4-carbony1)-6-chloro-5-fluorospiro[benzo[d][1,3]oxazine-4,3'-piperidin]-2(1H)-one], the IC50 at Human plasma kallikrein amounted to 13.2 nM; at human factor XIa, 421 nM.
The matching figures for `Nc1c(C(=O)N2CCC[C@@]3(C2)OC(=O)Nc2ccc(Cl)c(F)c23)cnn1-c1cc(F)ccc1OC(F)F` [Example 106, (R)-1'-(5-Amino-1-(2-(difluoromethoxy)-5-fluorophenyl)-1H-pyrazole-4-carbonyl)-6-chloro-5-fluorospiro[benzo[d][1,3]oxazine-4,3'-piperidin]-2(1H)-one]: 34.8 nM and 1070 nM.
As for `Nc1c(C(=O)N2CCC[C@@]3(C2)OC(=O)Nc2ccc(Cl)c(F)c23)cnn1-c1cccc(F)c1OC(F)F` [Example 107, (R)-1'-(5-Amino-1-(2-(difluoromethoxy)-3-fluorophenyl)-1H-pyrazole-4-carbonyl)-6-chloro-5-fluorospiro[benzo[d][1,3]oxazine-4,3'-piperidin]-2(1H)-one], the IC50 worked out at 15.2 nM at Human plasma kallikrein and 461 nM on human factor XIa.
For `COc1cccnc1-n1ncc(C(=O)N2CCC[C@@]3(C2)OC(=O)Nc2ccc(Cl)c(F)c23)c1N` [Example 108, (R)-1'-(5-Amino-1-(3-methoxypyridin-2-y1)-1H-pyrazole-4-carbonyl)-6-chloro-5-fluorospiro[benzo[d][1,3]oxazine-4,3'-piperidin]-2(1H)-one], the IC50 on Human plasma kallikrein was found to be 39.6 nM; on human factor XIa, 1690 nM.
On to `Cn1ncc(C(=O)N2CCC[C@@]3(C2)OC(=O)Nc2ccc(Cl)c(F)c23)c1N` [Example 109, (R)-1'-(5-Amino-1-methyl-1H-pyrazole-4-carbonyl)-6-chloro-5-fluorospiro[benzo[d][1,3]oxazine-4,3'-piperidin]-2(1H)-one], for which the IC50 was 338 nM on Human plasma kallikrein and greater than 10000 nM at human factor XIa.
Take `Nc1c(C(=O)N2CCC[C@@]3(C2)OC(=O)Nc2ccc(Cl)c(F)c23)cnn1-c1cccc(Cl)c1` [Example 110, (R)-1'-(5-Amino-1-(3-chlorophenyl)-1H-pyrazole-4-carbonyl)-6-chloro-5-fluorospiro[benzo[d][1,3]oxazine-4,3'-piperidin]-2(1H)-one]: the figures for the concentration for half-maximal inhibition (IC50) at Human plasma kallikrein and at human factor XIa were 66.1 nM and greater than 10000 nM, respectively.
As for `Cc1ccc(-n2ncc(C(=O)N3CCC[C@@]4(C3)OC(=O)Nc3ccc(Cl)c(F)c34)c2N)cc1` [Example 111, (R)-1'-(5-Amino-1-(p-toly1)-1H-pyrazole-4-carbonyl)-6-chloro-5-fluorospiro[benzo[d][1,3]oxazine-4,3'-piperidin]-2(1H)-one], the half-maximal inhibitory concentration (IC50) came out at 80.3 nM on Human plasma kallikrein and 2990 nM on human factor XIa.
The matching figures for `O=C1Nc2ccc(Cl)c(F)c2[C@@]2(CCCN(C(=O)c3cnn(Cc4ccc(F)cc4)c3O)C2)O1` [Example 132, (R)-6-Chloro-5-fluoro-1′-(1-(4-fluorobenzyl)-5-hydroxy-1H-pyrazole-4-carbonyl)spiro[benzo[d][1,3]oxazine-4,3′-piperidin]-2(1H)-one]: 17.8 nM and no less than 10000 nM.
`Nc1c(C(=O)N2CCC[C@@]3(C2)OC(=O)Nc2ccc(Cl)c(F)c23)nnn1Cc1ccccc1` [Example 133, (R)-1′-(5-Amino-1-benzyl-1H-1,2,3-triazole-4-carbonyl)-6-chloro-5-fluorospiro[benzo[d][1,3]oxazine-4,3′-piperidin]-2(1H)-one]: the IC50 was determined as 190 nM on Human plasma kallikrein and 328 nM on human factor XIa.

(Values after patent publication US12679848B2, “Plasma kallikrein inhibitors” (Merck Sharp & Dohme LLC, priority 2020, dated 2026).)
